Experimental data taken from patent US9358238B2, “Method of enhancing the performance of broiler chickens” (Intervet Inc., priority 2012, dated 2016).

Tests used:
Broiler chickens [1] = conditions: 1 ppm for 18 days (28 to 46 days of age); cited from earlier work
Japanese quails = conditions: 0, 0.2, 0.225, 0.25 mg/kg of live body weight, 21 days, birds at 26 days of age; cited from earlier work
chickens = conditions: skip a day feeding; 0, 0.2, 0.25, 0.3 mg/kg of live body weight, 20 days from 25 days of age; cited from earlier work
[2] = tested on: broiler chickens (Cobb 500 strain); assay: 42 day floor pen study, performance response of broiler chickens fed zilpaterol for 7 or 14 days (Example 2); assay type: in vivo
Source text: “Feed efficiency” refers to: feed consumed (lbs)/total live body weight (lbs). “Adjusted Feed efficiency” refers to feed consumed (lbs)/(total live body weight (lbs)+body weight (lbs) of mortalities).
“Average daily gain” refers to body weight gain (lbs)/number of days.
“Breast weight” refers to breast weight (lbs) at slaughter.
“Carcass yield” refers to carcass weight (lbs)/live body weight (lbs)×100.
“Breast yield” refers to breast weight (lbs)/live body weight (lbs)×100.
Zilpaterol hydrochloride was fed to broiler chickens in a 42 day floor pen study to evaluate the performance response of zilpaterol compared to a non-medicated control group. Six zilpaterol treatment groups consisted of three concentration levels (1, 3, and 5 ppm) and two feeding durations (7 and 14 days) and were administered in feed plus a non medicated control group. A total of 1,680 broiler chickens were allocated by sex to 56 pens with 30 birds/pen, and 4 pens/sex/group (240 birds/group). The 7 day zilpaterol treatments began at day 35 and continued to day 42 of age. The 14 day zilpaterol treatments began at day 28 and continued until day 42 of age.
Post-treatment, there were no statistically significant 2-way or 3-way interactions of sex with duration of treatment and concentration; therefore pooled results over sex are discussed. A summary of the performance response of broiler chickens fed various levels for zilpaterol (0, 1, 3, 5, ppm) and feeding durations (7, 14 days) compared to the control are shown in the following table:
A total of 1,680 broiler chickens (Cobb 500 strain) were allocated by sex to 56 pens (28 pens of males, 28 pens of females) with 30 birds per pen according to a randomized complete block design during a 42 day study. The six zilpaterol treatment groups were in a 2×3 factorial arrangement with two feeding durations of 7 or 14 days (i.e., days 35-42 or 28-42 respectively) and three zilpaterol concentration levels of 1, 3, or 5 ppm plus an un-supplemented (negative) control group. Treatment groups were randomly assigned by sex to pens within each block.

Broiler chickens [3] = assay: Broiler chickens fed zilpaterol daily at 1 ppm from day 8 to day 56 of age (Example 1); assay type: in vivo, chicken
Source text: Broiler chickens were fed zilpaterol every day at 1 ppm from day 8 until day 56 of age. The observed zilpaterol performance response was relatively small. In this study, non significant performance increases in Average Daily Gain (ADG) of 1.3-2.6% and Feed Efficiency (FE) of 0.6%-1.9% were reported.

Broiler chickens [4] = conditions: 0, 5 and 10 mg/kg, 3 to 6 weeks of age; cited from earlier work
[5] = 1 ppm in feed, 7 days (days 35-42)
[6] = 1 ppm in feed, 14 days (days 28-42)
[7] = 3 ppm in feed, 7 days (days 35-42)
[8] = 3 ppm in feed, 14 days (days 28-42)
[9] = 5 ppm in feed, 7 days (days 35-42)
[10] = 5 ppm in feed, 14 days (days 28-42)
[11] = 1 ppm every day, day 8 until day 56 of age, non significant

CC(C)(C)NCC(O)c1cc(Cl)c(N)c(Cl)c1 (stereo not drawn) [Clenbuterol]
improvement in average daily gain (ADG) above controls (Broiler chickens [1]): 3.3%
improvement in feed efficiency (FE) above controls (Broiler chickens [1]): 3.0%

CC(C)NC1CCn2c(=O)[nH]c3cccc(c32)C1O (stereo not drawn) [Zilpaterol, 4,5,6,7-tetrahydro-7-hydroxy-6-(isopropylamino) imidazo[4,5,1-jk]-[1]benzazepin-2(1H)-one]
feed conversion ratio (Japanese quails): improved
weight gain, final body weight, feed intake and carcass, thigh, breast liver and carcass weight (Japanese quails): not a significant difference
feed efficiency (chickens): improved
Improvement (%) of Average Daily Gain ([2]; 0 vs 1 ppm, 7 days): 5.4%
Improvement (%) of Body Weight Day 42 ([2]; 0 vs 1 ppm, 7 days): 2.1%
Improvement (%) of Breast Weight ([2]; 0 vs 1 ppm, 7 days): 3.8%
Improvement (%) of Carcass Yield ([2]; 0 vs 1 ppm, 7 days): 4.0%
Improvement (%) of Feed Efficiency (FE) ([2]; 0 vs 1 ppm, 7 days): 8.0%
Improvement (%) of Average Daily Gain ([2]; 0 vs 1 ppm, 14 days): 3.3%
Improvement (%) of Body Weight Day 42 ([2]; 0 vs 1 ppm, 14 days): 3.9%
Improvement (%) of Breast Weight ([2]; 0 vs 1 ppm, 14 days): 4.2%
Improvement (%) of Carcass Yield ([2]; 0 vs 1 ppm, 14 days): 1.8%
Improvement (%) of Feed Efficiency (FE) ([2]; 0 vs 1 ppm, 14 days): 3.3%
Improvement (%) of Average Daily Gain ([2]; 0 vs 3 ppm, 7 days): 18.5%
Improvement (%) of Body Weight Day 42 ([2]; 0 vs 3 ppm, 7 days): 3.9%
Improvement (%) of Breast Weight ([2]; 0 vs 3 ppm, 7 days): 9.1%
Improvement (%) of Carcass Yield ([2]; 0 vs 3 ppm, 7 days): 1.7%
Improvement (%) of Feed Efficiency (FE) ([2]; 0 vs 3 ppm, 7 days): 25.9%
Improvement (%) of Average Daily Gain ([2]; 0 vs 3 ppm, 14 days): 9.2%
Improvement (%) of Body Weight Day 42 ([2]; 0 vs 3 ppm, 14 days): 5.1%
Improvement (%) of Breast Weight ([2]; 0 vs 3 ppm, 14 days): 16.1%
Improvement (%) of Carcass Yield ([2]; 0 vs 3 ppm, 14 days): 2.9%
Improvement (%) of Feed Efficiency (FE) ([2]; 0 vs 3 ppm, 14 days): 9.7%
Improvement (%) of Average Daily Gain ([2]; 0 vs 5 ppm, 7 days): 23.8%
Improvement (%) of Body Weight Day 42 ([2]; 0 vs 5 ppm, 7 days): 4.1%
Improvement (%) of Breast Weight ([2]; 0 vs 5 ppm, 7 days): 12.6%
Improvement (%) of Carcass Yield ([2]; 0 vs 5 ppm, 7 days): 3.9%
Improvement (%) of Feed Efficiency (FE) ([2]; 0 vs 5 ppm, 7 days): 33.7%
Improvement (%) of Average Daily Gain ([2]; 0 vs 5 ppm, 14 days): 13.7%
Improvement (%) of Body Weight Day 42 ([2]; 0 vs 5 ppm, 14 days): 8.0%
Improvement (%) of Breast Weight ([2]; 0 vs 5 ppm, 14 days): 12.6%
Improvement (%) of Carcass Yield ([2]; 0 vs 5 ppm, 14 days): 2.8%
Improvement (%) of Feed Efficiency (FE) ([2]; 0 vs 5 ppm, 14 days): 9.9%
Body Weight Day 42 [2, 5]: 4.816 lb
Breast Weight [2, 5]: 1.133 lb
Breast Yield [2, 5]: 23.91%
Carcass Yield [2, 5]: 81.45%
Feed Efficiency (FE) (Feed/Gain Ratio) [2, 5]: 3.831
Body Weight Day 42 [2, 6]: 4.898 lb
Breast Weight [2, 6]: 1.138 lb
Breast Yield [2, 6]: 24.27%
Carcass Yield [2, 6]: 79.79%
Feed Efficiency (FE) (Feed/Gain Ratio) [2, 6]: 2.632
Body Weight Day 42 [2, 7]: 4.902 lb
Breast Weight [2, 7]: 1.191 lb
Breast Yield [2, 7]: 23.82%
Carcass Yield [2, 7]: 79.71%
Feed Efficiency (FE) (Feed/Gain Ratio) [2, 7]: 3.085
Body Weight Day 42 [2, 8]: 4.956 lb
Breast Weight [2, 8]: 1.268 lb
Breast Yield [2, 8]: 25.11%
Carcass Yield [2, 8]: 80.62%
Feed Efficiency (FE) (Feed/Gain Ratio) [2, 8]: 2.301
Body Weight Day 42 [2, 9]: 4.910 lb
Breast Weight [2, 9]: 1.230 lb
Breast Yield [2, 9]: 26.12%
Carcass Yield [2, 9]: 81.41%
Feed Efficiency (FE) (Feed/Gain Ratio) [2, 9]: 2.760
Body Weight Day 42 [2, 10]: 5.093 lb
Breast Weight [2, 10]: 1.230 lb
Breast Yield [2, 10]: 24.20%
Carcass Yield [2, 10]: 80.51%
Feed Efficiency (FE) (Feed/Gain Ratio) [2, 10]: 2.295
body weight increase versus controls ([2]; 5 ppm, 14 days (Z5-14d) versus Z0-0d, day 42): 0.38 lb
reduction of time to reach the target market weight ([2]; 5 ppm, 14 days, 0.38 lb/0.174 lb/day): approximately 2 days
effect on mean mortality rates compared to the control group ([2]; any level (1, 3, 5 ppm), either feeding duration (7 or 14 day)): no significant effect
breast yield, average of the zilpaterol treatment groups ([2]; average over 1, 3, 5 ppm and 7, 14 days, control 25.46%): 24.57%
carcass yield improvement compared to control (Broiler chickens [3]; 1 ppm daily for 7 weeks, P<0.01): 2%
performance increase in Average Daily Gain (ADG) (Broiler chickens [3]; [11]): 1.3-2.6%
performance increase in Feed Efficiency (FE) (Broiler chickens [3]; [11]): 0.6%-1.9

CC(CCc1ccc(O)cc1)NCC(O)c1ccc(O)cc1 (stereo not drawn) [ractopamine]
daily body weight gain (Broiler chickens [4]): not significantly affected
feed conversion (Broiler chickens [4]): not significantly affected
feed intake (Broiler chickens [4]): not significantly affected
